Results reported in ChEMBL document CHEMBL3872249, “Computer design, synthesis, and bioactivity analyses of drugs like fingolimod used in the treatment of multiple sclerosis” (Bioorg Med Chem, 2017).

How the values were obtained:
Format in all cases: functional
SK-N-SH [1] = test: Effect on AGTR2 mRNA expression in human SK-N-SH cells at EC10 by qPCR method relative to beta-actin
U-118-MG [2] = test: Effect on NOS2 mRNA expression in human U118MG cells at EC10 by qPCR method relative to beta-actin
U-118-MG [3] = test: Effect on CXCL10 mRNA expression in human U118MG cells at EC10 by qPCR method relative to beta-actin
SK-N-SH [4] = test: Effect on IL1B mRNA expression in human SK-N-SH cells at EC10 by qPCR method relative to beta-actin
SH-SY5Y [5] = test: Effect on IL1B mRNA expression in human SH-SY5Y cells at EC10 by qPCR method relative to beta-actin
SH-SY5Y [6] = test: Effect on VEGFA mRNA expression in human SH-SY5Y cells at EC10 by qPCR method relative to beta-actin
U-118-MG [7] = test: Effect on AKT1 mRNA expression in human U118MG cells at EC10 by qPCR method relative to beta-actin
SK-N-SH [8] = test: Effect on MYC mRNA expression in human SK-N-SH cells at EC10 by qPCR method relative to beta-actin
SH-SY5Y [9] = test: Effect on PIK3CG mRNA expression in human SH-SY5Y cells at EC10 by qPCR method relative to beta-actin
U-118-MG [10] = test: Effect on BCL2 mRNA expression in human U118MG cells at EC10 by qPCR method relative to beta-actin
U-118-MG [11] = test: Effect on CFLAR mRNA expression in human U118MG cells at EC10 by qPCR method relative to beta-actin
SK-N-SH [12] = test: Effect on GRM1 mRNA expression in human SK-N-SH cells at EC10 by qPCR method relative to beta-actin
SK-N-SH [13] = test: Effect on CD44 mRNA expression in human SK-N-SH cells at EC10 by qPCR method relative to beta-actin
SK-N-SH [14] = test: Effect on CYP19A1 mRNA expression in human SK-N-SH cells at EC10 by qPCR method relative to beta-actin
SH-SY5Y [15] = test: Effect on EDNRA mRNA expression in human SH-SY5Y cells at EC10 by qPCR method relative to beta-actin
SK-N-SH [16] = test: Effect on BCL2 mRNA expression in human SK-N-SH cells at EC10 by qPCR method relative to beta-actin
U-118-MG [17] = test: Effect on CCL2 mRNA expression in human U118MG cells at EC10 by qPCR method relative to beta-actin
SH-SY5Y [18] = test: Effect on JUN mRNA expression in human SH-SY5Y cells at EC10 by qPCR method relative to beta-actin
SK-N-SH [19] = test: Effect on CSF1 mRNA expression in human SK-N-SH cells at EC10 by qPCR method relative to beta-actin
U-118-MG [20] = test: Effect on AGTR2 mRNA expression in human U118MG cells at EC10 by qPCR method relative to beta-actin
SH-SY5Y [21] = test: Effect on MYC mRNA expression in human SH-SY5Y cells at EC10 by qPCR method relative to beta-actin
SK-N-SH [22] = test: Effect on VCAM1 mRNA expression in human SK-N-SH cells at EC10 by qPCR method relative to beta-actin
SK-N-SH [23] = test: Effect on FOXP3 mRNA expression in human SK-N-SH cells at EC10 by qPCR method relative to beta-actin
SK-N-SH [24] = test: Effect on RAF1 mRNA expression in human SK-N-SH cells at EC10 by qPCR method relative to beta-actin
SH-SY5Y [25] = test: Effect on RAF1 mRNA expression in human SH-SY5Y cells at EC10 by qPCR method relative to beta-actin
U-118-MG [26] = test: Effect on CCL3 mRNA expression in human U118MG cells at EC10 by qPCR method relative to beta-actin
SK-N-SH [27] = test: Effect on PTGDR mRNA expression in human SK-N-SH cells at EC10 by qPCR method relative to beta-actin
SK-N-SH [28] = test: Effect on COL1A1 mRNA expression in human SK-N-SH cells at EC10 by qPCR method relative to beta-actin
SK-N-SH [29] = test: Effect on MAG mRNA expression in human SK-N-SH cells at EC10 by qPCR method relative to beta-actin
SK-N-SH [30] = test: Effect on CCL3 mRNA expression in human SK-N-SH cells at EC10 by qPCR method relative to beta-actin
SH-SY5Y [31] = test: Effect on GRM1 mRNA expression in human SH-SY5Y cells at EC10 by qPCR method relative to beta-actin
SH-SY5Y [32] = test: Effect on AGTR2 mRNA expression in human SH-SY5Y cells at EC10 by qPCR method relative to beta-actin
SH-SY5Y [33] = test: Effect on EPHA1 mRNA expression in human SH-SY5Y cells at EC10 by qPCR method relative to beta-actin
SH-SY5Y [34] = test: Effect on CFLAR mRNA expression in human SH-SY5Y cells at EC10 by qPCR method relative to beta-actin
U-118-MG [35] = test: Effect on COL1A1 mRNA expression in human U118MG cells at EC10 by qPCR method relative to beta-actin
U-118-MG [36] = test: Effect on IL1B mRNA expression in human U118MG cells at EC10 by qPCR method relative to beta-actin
SH-SY5Y [37] = test: Effect on STAT3 mRNA expression in human SH-SY5Y cells at EC10 by qPCR method relative to beta-actin
U-118-MG [38] = test: Effect on CXCL11 mRNA expression in human U118MG cells at EC10 by qPCR method relative to beta-actin
U-118-MG [39] = test: Effect on IL2 mRNA expression in human U118MG cells at EC10 by qPCR method relative to beta-actin
U-118-MG [40] = test: Effect on CSF1 mRNA expression in human U118MG cells at EC10 by qPCR method relative to beta-actin
SK-N-SH [41] = test: Effect on EDN1 mRNA expression in human SK-N-SH cells at EC10 by qPCR method relative to beta-actin
SK-N-SH [42] = test: Effect on S1PR3 mRNA expression in human SK-N-SH cells at EC10 by qPCR method relative to beta-actin
SH-SY5Y [43] = test: Effect on S1PR3 mRNA expression in human SH-SY5Y cells at EC10 by qPCR method relative to beta-actin
SH-SY5Y [44] = test: Effect on SOD1 mRNA expression in human SH-SY5Y cells at EC10 by qPCR method relative to beta-actin

## CCCCCCCCc1ccc(CCC(N)(CO)CO)cc1 [FINGOLIMOD]
SK-N-SH [1]
  fold change (FC): 3.8122
U-118-MG [2]
  fold change (FC): -5.6458
U-118-MG [3]
  fold change (FC): -8.4782
SK-N-SH [4]
  fold change (FC): -5.3866
SH-SY5Y [5]
  fold change (FC): -4.7158
SH-SY5Y [6]
  fold change (FC): -4.3696
U-118-MG [7]
  fold change (FC): -2.5763
SK-N-SH [8]
  fold change (FC): -8.3361
SH-SY5Y [9]
  fold change (FC): -5.6081
U-118-MG [10]
  fold change (FC): -4.7035
U-118-MG [11]
  fold change (FC): -3.53
SK-N-SH [12]
  fold change (FC): -4.8631
SK-N-SH [13]
  fold change (FC): -4.3753
SK-N-SH [14]
  fold change (FC): -7.2069
SH-SY5Y [15]
  fold change (FC): 6.8804
SK-N-SH [16]
  fold change (FC): -2.7547
U-118-MG [17]
  fold change (FC): -5.2826
SH-SY5Y [18]
  fold change (FC): -3.5677
SK-N-SH [19]
  fold change (FC): -7.7644
U-118-MG [20]
  fold change (FC): 4.8347
SH-SY5Y [21]
  fold change (FC): -4.508
SK-N-SH [22]
  fold change (FC): -7.0341
SK-N-SH [23]
  fold change (FC): -4.444
SK-N-SH [24]
  fold change (FC): -5.2666
SH-SY5Y [25]
  fold change (FC): -5.0718
U-118-MG [26]
  fold change (FC): -3.4017
SK-N-SH [27]
  fold change (FC): -4.3981
SK-N-SH [28]
  fold change (FC): -3.7305
SK-N-SH [29]
  fold change (FC): 3.5508
SK-N-SH [30]
  fold change (FC): -4.0682
SH-SY5Y [31]
  fold change (FC): -20.6061
SH-SY5Y [32]
  fold change (FC): 3.2887
SH-SY5Y [33]
  fold change (FC): -6.442
SH-SY5Y [34]
  fold change (FC): -13.7609
U-118-MG [35]
  fold change (FC): -5.339
U-118-MG [36]
  fold change (FC): -4.3432
SH-SY5Y [37]
  fold change (FC): -5.5022

## CCCCCCCCn1nnnc1CCC(N)(CO)CO.Cl
SK-N-SH [1]
  fold change (FC): 9.0827
U-118-MG [2]
  fold change (FC): -4.0673
U-118-MG [38]
  fold change (FC): -2.9665
SK-N-SH [4]
  fold change (FC): -4.7796
SH-SY5Y [5]
  fold change (FC): -6.5966
SH-SY5Y [6]
  fold change (FC): -6.1896
U-118-MG [39]
  fold change (FC): -4.2107
U-118-MG [7]
  fold change (FC): -2.6892
SK-N-SH [8]
  fold change (FC): -4.315
SH-SY5Y [9]
  fold change (FC): -3.5167
U-118-MG [10]
  fold change (FC): -4.6127
U-118-MG [11]
  fold change (FC): -2.9826
SK-N-SH [12]
  fold change (FC): -5.0346
U-118-MG [40]
  fold change (FC): -4.2226
SK-N-SH [14]
  fold change (FC): -5.5959
SH-SY5Y [15]
  fold change (FC): 3.6859
SK-N-SH [16]
  fold change (FC): -7.8184
SH-SY5Y [18]
  fold change (FC): -4.7214
SK-N-SH [19]
  fold change (FC): -3.004
SK-N-SH [41]
  fold change (FC): 7.7711
U-118-MG [20]
  fold change (FC): 4.8726
SH-SY5Y [21]
  fold change (FC): -5.0669
SK-N-SH [42]
  fold change (FC): -4.0052
SK-N-SH [22]
  fold change (FC): -5.4618
SK-N-SH [23]
  fold change (FC): -3.4447
SH-SY5Y [43]
  fold change (FC): -2.5755
SK-N-SH [28]
  fold change (FC): -3.842
SH-SY5Y [31]
  fold change (FC): -4.806
SH-SY5Y [32]
  fold change (FC): 8.9431
SH-SY5Y [33]
  fold change (FC): -6.2326
SH-SY5Y [34]
  fold change (FC): -3.1434
U-118-MG [35]
  fold change (FC): -5.8779
U-118-MG [36]
  fold change (FC): -3.0275
SH-SY5Y [37]
  fold change (FC): -2.8938

## CCCCCCCCn1nnnc1-c1ccc(C(O)CC(N)(CO)CO)cc1.Cl (stereo unspecified)
U-118-MG [38]
  fold change (FC): -4.2262
U-118-MG [3]
  fold change (FC): -4.8547
U-118-MG [39]
  fold change (FC): -4.5247
U-118-MG [17]
  fold change (FC): -5.2393
SK-N-SH [42]
  fold change (FC): -4.5159
SH-SY5Y [44]
  fold change (FC): -3.4032
SH-SY5Y [43]
  fold change (FC): -3.7208
U-118-MG [26]
  fold change (FC): -3.7241
SK-N-SH [29]
  fold change (FC): 3.9862
SK-N-SH [30]
  fold change (FC): -5.716
